According to patent publication US10966951B2, “Compositions and methods for lowering triglycerides in a subject having reduced kidney function” (Amarin Pharmaceuticals Ireland Limited, priority 2017, dated 2021):

Key:
Assay type in all cases: in vivo, human
[1] = Essential fatty acid parameters in plasma, 6-week AAMI study (Example 2)
Protocol: A single-center, 6-week, double-blind, randomized, parallel-group, placebo-controlled, dose-ranging pilot study was performed to evaluate the efficacy, tolerability, and safety of >96% E-EPA in subjects with subjective and objective memory impairment according to generally accepted criteria for Age-Associated Memory Impairment (“AAMI”). The primary objective of the study was to determine the effect of >96% E-EPA 1 g, 2 g, and 4 g daily, compared to placebo, on cognitive performance in subjects with AAMI.
Ninety-four subjects were randomized into one of six groups: 1 g E-EPA daily (n=23), 2 g E-EPA daily (n=24), 4 g E-EPA daily (n=24), 1 g placebo daily (n=7), 2 g placebo daily (n=8), and 4 g placebo daily (n=8). E-EPA was provided as 500 mg soft gel capsules containing >96% E-EPA and 0.2% dl-α-tocopherol as an antioxidant. Placebo capsules contained 467 mg of liquid paraffin and 0.2% dl-α-tocopherol. Ninety-one subjects completed the study. Two subjects in the 2 g E-EPA group and one subject in the 2 g placebo group discontinued the study.
Blood samples (10 mL) were collected at Visit 1 (screening) and at Visits 4, 5, and 6. Analysis was performed by MSR Lipid Analysis, Scottish Crop Research Institute, Dundee, UK. The screening sample acted as baseline for the EFA measurements. Lipid was extracted from plasma, serum, and RBC suspensions and converted into fatty acid methyl esters which were analyzed by gas chromatography to give fatty acid profiles as micrograms fatty acid per gram of sample ([…]) and normalized area percent.
RBC and plasma EFA data were collected at baseline, Day 14, 28, and 42 and summarized by visit for each treatment group. Change from baseline and percent change from baseline were also summarized. ANCOVA comparison of E-EPA dose groups and E-EPA versus placebo was performed.

[2] = tested on: patients with reduced kidney function (eGFR<90 mL/min/1.73 m^2) and hsCRP≥2.0 mg/L; assay: Post-hoc ANCHOR analysis, reduced kidney function and hsCRP≥2.0 mg/L (Example 6); settings: 4 g/day
Protocol: CVD-related (e.g., atherogenic) parameters were analyzed in a post-hoc study of 152 patients from the multi-center, placebo-controlled, randomized double-blind, 12-week study described in Example 1. These 152 patients have reduced kidney function (e.g., eGFR<90 mL/min/1.73 m^2 for ≥3 months) and hsCRP≥2.0 mg/L.
72 patients were randomized to E-EPA and 80 patients were randomized to placebo. In total, atherogenic parameters were analyzed in all 152 patients, 54% of which were male and 99% of which were white. The mean age of the 152 patients was 64 years old.
The primary objective of this post-hoc study, was to determine if and how 4 g of daily of >96% E-EPA, compared to placebo, affects patients with reduced kidney function, elevated hsCRP (e.g, hsCRP≥2.0 mg/L), and high triglyceride levels. The secondary objective was to determine if and how 4 g daily of >96% E-EPA, compared to placebo, affected CVD-related parameters in patients with a high risk for CVD and fasting TG levels 200 mg/dL and <500 mg/dL, despite treatment to LDL-C goal on statin therapy. These CVD-parameters include lipid levels, lipoprotein levels, and inflammatory markers, such as TC, LDL-C, HDL-C, vLDL-C, vLDL-TG, RLP-C, non-HDL-C, Apo B, Apo C-III, Lp-PLA, hsCRP, and ox-LDL, and in plasma and RBC EPA concentration. CVD-parameters were analyzed for median difference in percent change from baseline to week 12 in subjects receiving 4 g/day of E-EPA and those receiving the placebo.
The median difference in lipid/lipoprotein, apolipoprotein, and inflammatory parameters were determined from baseline to week 12 for 4/g day of E-EPA compared to placebo.

[3] = tested on: subjects with Age-Associated Memory Impairment; assay: Safety and tolerability, 6-week AAMI study (Example 2)
Protocol: Ninety-four subjects were randomized into one of six groups: 1 g E-EPA daily (n=23), 2 g E-EPA daily (n=24), 4 g E-EPA daily (n=24), 1 g placebo daily (n=7), 2 g placebo daily (n=8), and 4 g placebo daily (n=8).
All randomized subjects that received at least 1 dose of study medication were included in the Safety Population.
Safety evaluations were based on the safety population. Safety and tolerability were assessed in terms of AEs, vital signs, 12-lead ECG, clinical laboratory data, medical history, and study drug compliance. Safety and tolerability data were presented by treatment group.

CC/C=C\C/C=C\C/C=C\C/C=C\C/C=C\CCCC(=O)OCC [E-EPA, ethyl eicosapentaenoate]
EPA, DPAn-3, and EPA/AA ratio values from baseline to Day 42 ([1]; plasma and RBC, 1, 2, and 4 g treatment groups): increased substantially | AA Mean change from Baseline, Mean (SD) ([1]; plasma, 1 g daily, Day 14): −9.7 (22.20) μg/g | DHA Mean change from Baseline, Mean (SD) ([1]; plasma, 1 g daily, Day 14): −6.4 (13.30) μg/g | EPA/AA Mean change from Baseline, Mean (SD) ([1]; plasma, 1 g daily, Day 14): 0.3 (0.4) | DHA Mean change from Baseline, Mean (SD) ([1]; plasma, 1 g daily, Day 28): −6.6 (15.53) μg/g | EPA/AA Mean change from Baseline, Mean (SD) ([1]; plasma, 1 g daily, Day 28): 0.3 (0.20) | AA Mean change from Baseline, Mean (SD) ([1]; plasma, 1 g daily, Day 42): −8.7 (31.35) μg/g | DGLA Mean change from Baseline, Mean (SD) ([1]; plasma, 1 g daily, Day 42): −9.4 (9.41) μg/g | DHA Mean change from Baseline, Mean (SD) ([1]; plasma, 1 g daily, Day 42): −5.4 (18.17) μg/g | EPA/AA Mean change from Baseline, Mean (SD) ([1]; plasma, 1 g daily, Day 42): 0.3 (0.24) | EPA/AA Baseline Mean (SD) ([1]; plasma, 1 g daily): 0.2 (0.14) | AA LS Mean, 1 g versus 4 g ([1]; plasma, 1 g versus 4 g): 4.2 µg/g | DGLA LS Mean, 1 g versus 4 g ([1]; plasma, 1 g versus 4 g): 3.7 µg/g | DHA LS Mean, 1 g versus 4 g ([1]; plasma, 1 g versus 4 g): -0.8 µg/g | EPA/AA LS Mean, 1 g versus 4 g ([1]; plasma, 1 g versus 4 g): −0.66 | DHA Mean change from Baseline, Mean (SD) ([1]; plasma, 2 g daily, Day 14): −5.4 (14.29) μg/g | EPA/AA Mean change from Baseline, Mean (SD) ([1]; plasma, 2 g daily, Day 14): 0.6 (0.23) | DHA Mean change from Baseline, Mean (SD) ([1]; plasma, 2 g daily, Day 28): −8.1 (15.82) μg/g | EPA/AA Mean change from Baseline, Mean (SD) ([1]; plasma, 2 g daily, Day 28): 0.8 (0.35) | DHA Mean change from Baseline, Mean (SD) ([1]; plasma, 2 g daily, Day 42): −6.0 (16.69) μg/g | EPA/AA Mean change from Baseline, Mean (SD) ([1]; plasma, 2 g daily, Day 42): 0.7 (0.29) | EPA/AA Baseline Mean (SD) ([1]; plasma, 2 g daily): 0.2 (0.12) | DGLA LS Mean, 2 g versus 4 g ([1]; plasma, 2 g versus 4 g): 2.5 µg/g | DHA LS Mean, 2 g versus 4 g ([1]; plasma, 2 g versus 4 g): 1.5 µg/g | EPA/AA LS Mean, 2 g versus 4 g ([1]; plasma, 2 g versus 4 g): −0.41 | EPA/AA Mean change from Baseline, Mean (SD) ([1]; plasma, 4 g daily, Day 14): 1.1 (0.28) | EPA/AA Mean change from Baseline, Mean (SD) ([1]; plasma, 4 g daily, Day 28): 1.3 (0.42) | EPA/AA Mean change from Baseline, Mean (SD) ([1]; plasma, 4 g daily, Day 42): 1.3 (0.45) | EPA/AA Baseline Mean (SD) ([1]; plasma, 4 g daily): 0.2 (0.07) | albumin after 12 weeks ([2]; after 12 weeks): 4.4 g/dL | serum creatinine after 12 weeks ([2]; after 12 weeks): 0.9 mg/dL | albumin before treatment ([2]; before the 12 weeks): 4.5 g/dL | eGFR before treatment ([2]; before the 12 weeks): 72.4 mL/min/1.73 m^2 | serum creatinine before treatment ([2]; before the 12 weeks): 0.9 mg/dL | subjects with nausea Possibly Related to the study drug ([3]; 1 g cohort): two | nausea Probably Related to the study drug ([3]; 1 g, one subject): experienced nausea that was Probably Related to the study drug | subjects with nausea Possibly Related to the study drug ([3]; 2 g cohort): one | SAE reported ([3]; 2 g treatment group): One SAE | subjects discontinued due to TEAEs ([3]; 2 g treatment group): 2 subjects | relatedness of the SAE (worsening epigastric chest pain) ([3]; 2 g, one subject): unrelated to the study drug | subjects with nausea Possibly Related to the study drug ([3]; 4 g cohort): two | diarrhea Probably Related to the study drug ([3]; 4 g, one subject): experienced diarrhea that was Probably Related to the study drug | TEAEs Definitely Related to the study drug ([3]; all groups): No TEAEs were Definitely Related
